From patent publication US20180193659A1, “PHOTODYNAMIC THERAPY LIGHT IRRADIATING DEVICE AND LIGHT IRRADIATING METHOD” (Public University Corporation Nagoya City University, priority 2015, published 2018)
Like-named read-outs stand apart in the source and are kept apart here.

Columns and labels:
[1] = tested on: HaCaT cells (human skin keratinocyte cell line); details: 1 mM 5-ALA; for PDT effect (1 - cell survival rate): 0.4 J/cm^2
Experimental: After 4 hours, the plurality of plates except for one plate were each subjected to five kinds of single-wavelength irradiation and four kinds of multiple-wavelength irradiation (specifically, two-wavelength irradiation) at respective amounts of irradiation of 0.2 J/cm^2, 0.4 J/cm^2, 0.6 J/cm^2, 0.8 J/cm^2, 1.0 J/cm^2, and 1.2 J/cm^2. Specifically, in the five kinds of single-wavelength irradiation, irradiation with each of light having a wavelength of 405 nm, light having a wavelength of 505 nm, light having a wavelength of 545 nm, light having a wavelength of 570 nm, and light having a wavelength of 635 nm was performed. The four kinds of multiple-wavelength irradiation with light in which the light having the wavelength of 405 nm and the light having the wavelength of 505 nm were combined, light in which the light having the wavelength of 405 nm and the light having the wavelength of 545 nm were combined, light in which the light having the wavelength of 405 nm and the light having the wavelength of 570 nm were combined, and light in which the light having the wavelength of 405 nm and the light having the wavelength of 635 nm were combined were performed. In the single-wavelength irradiation and the multiple-wavelength irradiation, as a light source of the light having the wavelength of 405 nm, an LED element in which the energy of light from the light source was 11 mW/cm^2 (irradiation distance: 100 mm) was used. […]
Subsequently, in the plurality of plates that had been irradiated with light and the plate that had not been irradiated with light, cultivation was performed over 18 hours. The cell survival rate was measured by an MTT assay using an XTT cell proliferation assay kit.
On the basis of the results of cell survival rate at an amount of irradiation of 0.4 J/cm^2, a therapeutic effect by a photodynamic therapy (hereinafter also referred to as “PDT effect”) was calculated by the following expression (1).
Herein, the cell survival rate reference value is a value calculated by the following expression (2). […]

[2] = tested on: HaCaT cells (human skin keratinocyte cell line); test: Experimental Example 2: cell survival rate of 5-ALA-treated HaCaT cells after 635 nm irradiation under pulse width modulation; type: cell-based; details: 1 mM 5-ALA, 12 J/cm^2, 125 kHz PWM, off time not more than 4 μs
Experimental: The irradiation was performed using a pulse width modulation control power supply (PWM power supply) with a frequency of 125 kHz capable of adjusting light using pulse width modulation at 256 modes as shown in FIG. 12. Specifically, in the condition (1), light irradiation was performed using pulse width modulation control in which the off time (t(off)) in pulse width modulation was 5.6 μs. In the condition (2), light irradiation was performed using pulse width modulation control in which the off time (t(off)) in pulse width modulation was 5.3 μs. In the condition (3), light irradiation was performed using pulse width modulation control in which the off time (t(off)) in pulse width modulation was 4.8 μs. In the condition (4), light irradiation was performed using pulse width modulation control in which the off time (t(off)) in pulse width modulation was 4.0 μs. In the condition (5), light irradiation was performed using pulse width modulation control in which the off time (t(off)) in pulse width modulation was 2.7 μs. In all the conditions (1) to (5), the pulse period (T) was 8 μs. In the condition (6), light irradiation in which the off time (t(off)) in pulse width modulation was 0 μs, that is, light irradiation that was continuous irradiation under the same condition as that in amplitude variable control was performed.

Structure (SMILES): NCC(=O)CCC(=O)O [5-ALA, δ-aminolevulinic acid]
- PDT effect, single-wavelength irradiation ([1]; 4 h, 405 nm compared with 505, 545, 570 and 635 nm): most excellent PDT effect
- PDT effect (1 - cell survival rate) ([1]; 405 nm + 505 nm): excellent PDT effect is obtained
- PDT effect (1 - cell survival rate) ([1]; 405 nm + any of 545, 570, 635 nm): sufficient PDT effect is not obtained
- PDT effect under pulse width modulation versus continuous irradiation [2]: the same as that in continuous irradiation
